According to patent publication US20250188123A1, “PROTEASE INHIBITORS” (Regents of the University of Minnesota, priority 2022, published 2025):
Read-outs that look alike come from different tables or passages of the source. *1 amine or outer side, *2 acyl side, *3 side chain or, on linkers, in order; H or OH if unused. Where a SMILES comes first, the peptide text is derived from it. [ ]: non-standard residue; d: D form. The star is where a group is joined. ξ: configuration not given here. X1 = Cc1ccc2c(c1)CCN([*:1])[C@@H]2C(=O)[*:2]; ξ(indoline-2-carboxyl) = O=C(O)C1Cc2ccccc2N1; ξTHIQ1CO(6-Me) = Cc1ccc2c(c1)CCNC2C(=O)O; X3 = O=C([C@@H]1Cc2ccccc2N1[*:1])[*:2]; Aad = N[C@@H](CCCC(=O)O)C(=O)O; Thr(3ξ) = CC(O)[C@H](N)C(=O)O; Bn = c1ccc(C*)cc1

Assays:
human caspase-2 = biological target: T1, human caspase-2 (Homo sapiens, UniProt P42575); experiment: Fluorescent enzyme assay, Casp2 (AFC substrate Z-VDVAD-AFC); type: biochemical; settings: for Ki (Casp3) / Ki (Casp2): selectivity Casp2 over Casp3
T1 construct: inferred from pET23b, XhoI reverse primer without stop codon, Ni-NTA purification) (C); made in house; host or cells: E. coli BL21(DE3)
T1 sequence (P42575 170-452): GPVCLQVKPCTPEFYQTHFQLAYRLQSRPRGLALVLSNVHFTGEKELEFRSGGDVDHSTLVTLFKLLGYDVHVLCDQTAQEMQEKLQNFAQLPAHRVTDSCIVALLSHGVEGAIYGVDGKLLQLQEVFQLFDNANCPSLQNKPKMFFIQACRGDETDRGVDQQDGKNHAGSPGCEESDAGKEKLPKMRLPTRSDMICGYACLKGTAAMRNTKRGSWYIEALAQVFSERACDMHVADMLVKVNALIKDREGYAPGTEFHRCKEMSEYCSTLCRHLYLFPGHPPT
From the text: (§1) Human recombinant Casp1, 6, 7, and 9 were purchased from BioVision (Milpitas/CA, USA). AFC fluorogenic substrates and control peptides (AcYVAD-CHO, AcVDVAD-CHO, AcDEVD-CHO, AcVEID-CHO, and AcLEHD-CHO) were purchased from Bachem (Torrance/CA, USA). The pET23b vector encoding human caspase-3 was a gift of Dr. Michelle Arkin at University of California, San Francisco. Expression and purification of Casp3 was guided by previously described protocols (Denault J-B, Salvesen G S., Current Protocols in Protein Science, 2002, 30(1), 21.13. 1-21.13. 15). Briefly, the plasmid was transformed into E. coli Rosetta 2 pLyss DE3 cells that were cultured at 1 L scale in shake flasks. Five hours post induction with IPTG, cells were harvested through centrifugation (4000 g for 10 minutes at 4° C.), lysed by sonication, and centrifuged again for 30 minutes at 20000 g. Supernatant was resuspended in buffer (100 mM Tris pH 8.0, 500 mM NaCl). Purification was achieved by nickel-affinity chromatography followed by ion-exchange chromatography. Protein was diluted to 0.5 mg/mL and stored at −80° C. in 100 mM Tris, pH 8.0 supplemented with 10% glycerol. The typical yield for the expression, isolation, and purification was approximately 3 mg/L. The DNA encoding human caspase-2 (hCASP2, amino acids 170-452, free of the N-terminal caspase activation and recruitment domain) open reading frame (ORF) was amplified via polymerase chain reaction (PCR) from full-length hCASP2 cDNA (Origene, Rockville, MD; Cat #SC321316) using following primers: forward, 5′-[…]-3′; reverse, 5′-[…]-3′. The PCR fragment was then cloned into the pET23b vector (Millipore Sigma, Burlington, MA), and DNA sequence was verified by classic Sanger sequencing analyses. Site-directed mutageneses were carried out using a QuikChange II XL site-directed mutagenesis kit (Agilent Technologies, Santa Clara, CA; Cat #200522) according to the manufacturer's instruction. Expression of recombinant hCASP2 was induced using 150 μM isopropyl-β-D-thiogalactopyranoside (IPTG) (Promega, Madison, WI) in the BL21(DE3) E. coli strain (Millipore Sigma) at 16° C. for 14 hours while shaking at 250 rpm. Cells were then harvested via centrifugation at 6,000 g, 4° C. for 15 minutes, followed by lysis via sonication. Proteins were initially purified using HisPur Ni-NTA resin (Thermo Fisher Scientific, Waltham, MA) followed by metal chelating chromatography (5 mL HiTrap Chelating HP columns (GE Healthcare Life Sciences, Piscataway, NJ)). Further purification was carried out using anion exchange chromatography (5 mL HiTrap Q HP columns (GE Healthcare Life Sciences)) for hCASP2. Proteins were stored in 1× phosphate-buffered saline (pH 7.4) at 10 mg/mL (concentration determined using a BCA assay (Thermo Fisher Scientific)), −80° C. until further use.
(§2) KM values were determined experimentally to be the following: Casp1: 5.9 μM; Casp2: 37.1 μM; Casp3: 7.6 μM; Casp6: 14.5 μM; Casp7: 13.8 μM; Casp9: 149.1 μM. Enzymes were diluted in buffer: 100 mM MES (pH 6.5) for Casp2 and or 100 mM HEPES (pH 7.0) for all other caspases, plus 150 mM NaCl, 0.1% CHAPS, 1.5% sucrose, 10 mM DTT. Enzyme concentrations were 0.05 U/well for Casp1, 6, and 7; 0.5 U/well for Casp9, 20 nM/well for Casp2, and 2 nM/well for Casp3. Enzyme in buffer (19 μL) was added per well in a black 384-well Corning 4514 assay plate. Test compounds were serially diluted in dimethyl sulfoxide (DMSO) and plated in duplicate into a Corning 3656 transfer plate. Test compound was added to assay plates in 0.5 μL aliquots per well and mixed 10 times using a BiomekFX (Beckman Coulter). Compound and enzyme mixture was incubated at 37° C. for 5 minutes for aldehyde warheads and 45 minutes for cyano warheads. […]

human caspase-3 = biological target: T2, human caspase-3 (Homo sapiens, UniProt P42574); experiment: Fluorescent enzyme assay, Casp3 (AFC substrate AcDEVD-AFC); type: biochemical
T2 construct: made in house; host or cells: E. coli Rosetta 2 pLysS DE3
T2 sequence (P42574 29-277): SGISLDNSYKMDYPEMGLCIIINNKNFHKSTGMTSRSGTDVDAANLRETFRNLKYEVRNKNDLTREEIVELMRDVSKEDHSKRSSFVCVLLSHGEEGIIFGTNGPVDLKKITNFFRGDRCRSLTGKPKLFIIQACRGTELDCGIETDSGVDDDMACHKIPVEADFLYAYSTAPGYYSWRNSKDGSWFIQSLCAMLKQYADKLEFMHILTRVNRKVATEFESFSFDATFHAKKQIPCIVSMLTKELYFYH
From the text: as §1, §2

[1] = mean ± SEM of N independent experiments, each in duplicate or triplicate, read-out: pKi ± SEM Casp 2 (converted)
[2] = mean ± SEM of N independent experiments, each in duplicate or triplicate, read-out: pKi ± SEM Casp 3 (converted)

Ki (human caspase-2; [1]) [nM] | Ki (human caspase-3; [2]) [µM] | SMILES | Ki (human caspase-2) [nM] | Ki (Casp3) / Ki (Casp2) (human caspase-2) | Ki (human caspase-3) [µM]
– | – | Cc1ccc2c(c1)CCN(C(=O)[C@@H](NC(=O)[C@H](CCCC(=O)O)NC(=O)C1Cc3ccccc3N1)C(C)C)[C@@H]2C(=O)N[C@H](C=O)CC(=O)O (stereo partly drawn) [Compound 2, (S)-6-(((S)-1-((S)-1-(((S)-1-carboxy-3-oxopropan-2-yl)carbamoyl)-6-methyl-3,4-dihydroisoquinolin-2(1H)-yl)-3-methyl-1-oxobutan-2-yl)amino)-5-((S)-indoline-2-carboxamido)-6-oxohexanoic acid hydrotrifluoroacetate] (H-[ξ(indoline-2-carboxyl)][Aad]V[X1]D-aldehyde) | 39.8 | 794 | > 31.6
> 100000 | > 100 | Cc1ccc2c(c1)CCN(C(=O)CNC(=O)CNC(=O)[C@@H]1Cc3ccccc3N1)[C@@H]2C(=O)N[C@H](C=O)CC(=O)O [Compound 3, (S)-3-((S)-2-(((S)-indoline-2-carbonyl)glycylglycyl)-6-methyl-1,2,3,4-tetrahydroisoquinolin-1-carboxamido)-4-oxobutanoic acid hydrotrifluoroacetate] | – | – | –
> 100000 | > 100 | Cc1ccc2c(c1)CCN(C(=O)CCCCNC(=O)[C@@H]1Cc3ccccc3N1)[C@@H]2C(=O)N[C@H](C=O)CC(=O)O [Compound 4, (S)-3-((S)-2-(5-((S)-indoline-2-carboxamido)pentanoyl)-6-methyl-1,2,3,4-tetrahydroisoquinoline-1-carboxamido)-4-oxobutanoic acid hydrotrifluoroacetate] | – | – | –
– | – | Cc1ccc2c(c1)CCN(C(=O)CNC(=O)[C@H](CCCC(=O)O)NC(=O)[C@@H]1Cc3ccccc3N1)[C@@H]2C(=O)N[C@H](C=O)CC(=O)O [Compound 5, (S)-6-((2-((S)-1-(((S)-1-carboxy-3-oxopropan-2-yl)carbamoyl)-6-methyl-3,4-dihydroisoquinolin-2(1H)-yl)-2-oxoethyl)amino)-5-((S)-indoline-2-carboxamido)-6-oxohexanoic acid hydrotrifluoroacetate] | 17 | 324 | 5.5
– | – | Cc1ccc2c(c1)CCN(C(=O)[C@@H](NC(=O)[C@H](CCCC(=O)O)NC(=O)[C@@H]1Cc3ccccc3N1)C(C)OCc1ccccc1)C2C(=O)N[C@H](C=O)CC(=O)O (stereo partly drawn) [Compound 6, (S)-6-(((2S,3S)-3-(benzyloxy)-1-((S)-1-(((S)-1-carboxy-3-oxopropan-2-yl)carbamoyl)-6-methyl-3,4-dihydroisoquinolin-2(1H)-yl)-1-oxobutan-2-yl)amino)-5-((S)-indoline-2-carboxamido)-6-oxohexanoic acid hydrotrifluoroacetate] (H-[X3][Aad][Thr(3ξ)](Bn)[ξTHIQ1CO(6-Me)]D-aldehyde) | 2290 | 14 | 33.1
29.5 | > 100 | CC(=O)N1c2ccccc2C[C@H]1C(=O)N[C@@H](CCCC(=O)O)C(=O)NCC(=O)N1CCc2cc(C)ccc2[C@H]1C(=O)N[C@H](C=O)CC(=O)O [Compound 7, (S)-5-((S)-1-acetylindoline-2-carboxamido)-6-((2-((S)-1-(((S)-1-carboxy-3-oxopropan-2-yl)carbamoyl)-6-methyl-3,4-dihydroisoquinolin-2(1H)-yl)-2-oxoethyl)amino)-6-oxohexanoic acid] | – | 3388 | –
6030 | > 100 | CC(=O)N1c2ccccc2C[C@H]1C(=O)N[C@@H](CCCC(=O)O)C(=O)N[C@H](C(=O)N1CCc2cc(C)ccc2[C@H]1C(=O)N[C@H](C=O)CC(=O)O)[C@H](C)OCc1ccccc1 [Compound 8, (S)-5-((S)-1-acetylindoline-2-carboxamido)-6-(((2S,3S)-3-(benzyloxy)-1-((S)-1-(((S)-1-carboxy-3-oxopropan-2-yl)carbamoyl)-6-methyl-3,4-dihydroisoquinolin-2(1H)-yl)-1-oxobutan-2-yl)amino)-6-oxohexanoic acid] | – | 17 | –
